In US10300155B2, “Alpha-synuclein ligands” (Washington University, priority 2015, dated 2019):
Several values for one entry are separate records, joined by “and”; a condition that tells them apart may be missing. Equal entries are not always repeated. Values belong to the molecule of their own block, whether it stands above or below them.

Experiment: Biodistribution in male Balb/C mice
Type: in vivo
Settings: for Biodistribution: Blood / Biodistribution: Bone / Biodistribution: Brain / Biodistribution: Fat / Biodistribution: Heart / Biodistribution: Kidney / Biodistribution: Liver / Biodistribution: Lung / Biodistribution: Muscle / Biodistribution: Pancreas / Biodistribution: Spleen: tail vein, mean ± SD, n = 4; for crossing of the blood brain barrier: judged from brain uptake at 5 min
Procedure: For the biodistribution studies, 100˜130 μCi of [^11C] TZ-20-35 in ˜100 μL of 10% ethanol/saline solution (v/v) was injected via the tail vein into mature male Balb/C mice (19-24 g) under anesthesia (2.5% isoflurane in oxygen at a flow rate of 1 mL/min). A group of at least four […] were used for each time point. […] The whole brain was quickly harvested. At the same time, samples of blood, heart, lung, liver, spleen, pancreas, kidney, muscle, fat, and tail were dissected. All the tissue samples were collected in tared tubes and counted in an automated gamma counter (Beckman Gamma 8000 well counter) with standards, prepared by diluting the injectate. The counted tissues were then weighed, and the % ID/g was calculated (Table 4).

Biodistribution: Blood (5 min post injection): 2.50 ± 0.13 % ID/g
Biodistribution: Bone (5 min post injection): 4.07 % ID/g and 4.07 ± 0.50 % ID/g
Biodistribution: Brain (5 min post injection): 4.59 % ID/g and 4.69 ± 0.70 % ID/g
Biodistribution: Fat (5 min post injection): 2.43 ± 0.42 % ID/g
Biodistribution: Heart (5 min post injection): 4.82 ± 0.47 % ID/g
Biodistribution: Kidney (5 min post injection): 35.67 ± 1.48 % ID/g
Biodistribution: Liver (5 min post injection): 16.30 ± 3.53 % ID/g
Biodistribution: Lung (5 min post injection): 8.50 ± 0.60 % ID/g
Biodistribution: Muscle (5 min post injection): 2.60 ± 0.19 % ID/g
Biodistribution: Pancreas (5 min post injection): 4.91 ± 0.68 % ID/g
Biodistribution: Spleen (5 min post injection): 3.12 ± 0.12 % ID/g
Biodistribution: Blood (30 min post injection): 2.30 ± 0.05 % ID/g
Biodistribution: Bone (30 min post injection): 28.50 % ID/g and 28.50 ± 2.81 % ID/g
Biodistribution: Brain (30 min post injection): 4.07 % ID/g and 4.07 ± 0.21 % ID/g
Biodistribution: Fat (30 min post injection): 1.70 ± 0.17 % ID/g
Biodistribution: Heart (30 min post injection): 2.23 ± 0.06 % ID/g
Biodistribution: Kidney (30 min post injection): 15.72 ± 1.06 % ID/g
Biodistribution: Liver (30 min post injection): 19.56 ± 0.97 % ID/g
Biodistribution: Lung (30 min post injection): 2.57 ± 0.15 % ID/g
Biodistribution: Muscle (30 min post injection): 1.35 ± 0.04 % ID/g
Biodistribution: Pancreas (30 min post injection): 3.02 ± 0.19 % ID/g
Biodistribution: Spleen (30 min post injection): 1.59 ± 0.08 % ID/g
Biodistribution: Blood (60 min post injection): 1.28 ± 0.06 % ID/g
Biodistribution: Bone (60 min post injection): 42.68 % ID/g and 42.68 ± 1.69 % ID/g
Biodistribution: Brain (60 min post injection): 3.21 % ID/g and 3.21 ± 0.14 % ID/g
Biodistribution: Fat (60 min post injection): 0.69 ± 0.10 % ID/g
Biodistribution: Heart (60 min post injection): 1.23 ± 0.05 % ID/g
Biodistribution: Kidney (60 min post injection): 5.59 ± 0.29 % ID/g
Biodistribution: Liver (60 min post injection): 10.71 ± 0.80 % ID/g
Biodistribution: Lung (60 min post injection): 1.31 ± 0.07 % ID/g
Biodistribution: Muscle (60 min post injection): 0.75 ± 0.07 % ID/g
Biodistribution: Pancreas (60 min post injection): 1.84 ± 0.33 % ID/g
Biodistribution: Spleen (60 min post injection): 0.90 ± 0.07 % ID/g
Biodistribution: Blood (120 min post injection): 0.70 ± 0.05 % ID/g
Biodistribution: Bone (120 min post injection): 49.39 % ID/g and 49.39 ± 8.21 % ID/g
Biodistribution: Brain (120 min post injection): 2.37 % ID/g and 2.37 ± 0.14 % ID/g
Biodistribution: Fat (120 min post injection): 0.23 ± 0.12 % ID/g
Biodistribution: Heart (120 min post injection): 0.71 ± 0.12 % ID/g
Biodistribution: Kidney (120 min post injection): 1.94 ± 0.29 % ID/g
Biodistribution: Liver (120 min post injection): 5.59 ± 0.39 % ID/g
Biodistribution: Lung (120 min post injection): 0.71 ± 0.09 % ID/g
Biodistribution: Muscle (120 min post injection): 0.55 ± 0.21 % ID/g
Biodistribution: Pancreas (120 min post injection): 0.98 ± 0.10 % ID/g
Biodistribution: Spleen (120 min post injection): 0.47 ± 0.04 % ID/g
defluorination (judged from increasing bone uptake in the mice): strong defluorination
Compound: O=C(Nc1ccc(OCC[18F])cc1)c1ccc(/C=C/c2ccncc2)cc1 [[^18F]TZ-23-88]
crossing of the blood brain barrier: can cross the blood brain barrier and enter the brain

Biodistribution: Blood (5 min post injection): 2.40 ± 0.39 % ID/g
Biodistribution: Bone (5 min post injection): 3.31 % ID/g and 3.31 ± 0.74 % ID/g
Biodistribution: Brain (5 min post injection): 1.51 % ID/g and 1.52 ± 0.18 % ID/g
Biodistribution: Fat (5 min post injection): 1.79 ± 0.55 % ID/g
Biodistribution: Heart (5 min post injection): 2.93 ± 0.34 % ID/g
Biodistribution: Kidney (5 min post injection): 11.17 ± 0.41 % ID/g
Biodistribution: Liver (5 min post injection): 52.44 ± 3.84 % ID/g
Biodistribution: Lung (5 min post injection): 7.70 ± 0.85 % ID/g
Biodistribution: Muscle (5 min post injection): 1.47 ± 0.16 % ID/g
Biodistribution: Pancreas (5 min post injection): 2.03 ± 0.19 % ID/g
Biodistribution: Spleen (5 min post injection): 23.73 ± 4.54 % ID/g
Biodistribution: Blood (30 min post injection): 2.42 ± 0.19 % ID/g
Biodistribution: Bone (30 min post injection): 39.47 % ID/g and 39.48 ± 10.28 % ID/g
Biodistribution: Brain (30 min post injection): 1.55 % ID/g and 1.56 ± 0.08 % ID/g
Biodistribution: Fat (30 min post injection): 1.34 ± 0.30 % ID/g
Biodistribution: Heart (30 min post injection): 2.19 ± 0.19 % ID/g
Biodistribution: Kidney (30 min post injection): 9.10 ± 0.34 % ID/g
Biodistribution: Liver (30 min post injection): 14.47 ± 1.13 % ID/g
Biodistribution: Lung (30 min post injection): 2.30 ± 0.25 % ID/g
Biodistribution: Muscle (30 min post injection): 1.30 ± 0.16 % ID/g
Biodistribution: Pancreas (30 min post injection): 1.87 ± 0.23 % ID/g
Biodistribution: Spleen (30 min post injection): 1.69 ± 0.15 % ID/g
Biodistribution: Blood (60 min post injection): 0.84 ± 0.05 % ID/g
Biodistribution: Bone (60 min post injection): 68.78 % ID/g and 68.78 ± 6.75 % ID/g
Biodistribution: Brain (60 min post injection): 1.46 % ID/g and 1.46 ± 0.16 % ID/g
Biodistribution: Fat (60 min post injection): 0.58 ± 0.13 % ID/g
Biodistribution: Heart (60 min post injection): 0.90 ± 0.07 % ID/g
Biodistribution: Kidney (60 min post injection): 3.87 ± 0.36 % ID/g
Biodistribution: Liver (60 min post injection): 7.00 ± 0.33 % ID/g
Biodistribution: Lung (60 min post injection): 0.83 ± 0.05 % ID/g
Biodistribution: Muscle (60 min post injection): 0.55 ± 0.06 % ID/g
Biodistribution: Pancreas (60 min post injection): 0.98 ± 0.08 % ID/g
Biodistribution: Spleen (60 min post injection): 0.61 ± 0.04 % ID/g
Biodistribution: Blood (120 min post injection): 0.32 ± 0.02 % ID/g
Biodistribution: Bone (120 min post injection): 70.20 % ID/g and 70.20 ± 15.04 % ID/g
Biodistribution: Brain (120 min post injection): 1.0 % ID/g and 1.00 ± 0.11 % ID/g
Biodistribution: Fat (120 min post injection): 0.29 ± 0.10 % ID/g
Biodistribution: Heart (120 min post injection): 0.31 ± 0.02 % ID/g
Biodistribution: Kidney (120 min post injection): 1.67 ± 0.23 % ID/g
Biodistribution: Liver (120 min post injection): 3.50 ± 0.48 % ID/g
Biodistribution: Lung (120 min post injection): 0.36 ± 0.03 % ID/g
Biodistribution: Muscle (120 min post injection): 0.33 ± 0.26 % ID/g
Biodistribution: Pancreas (120 min post injection): 0.61 ± 0.13 % ID/g
Biodistribution: Spleen (120 min post injection): 0.24 ± 0.01 % ID/g
crossing of the blood brain barrier: can cross BBB and enter the brain
Compound: O=C(Nc1ccc(OCCC[18F])cc1)c1ccc(/C=C/c2ccncc2)cc1 [[^18F]TZ-23-92]
